Laboratory results taken from ChEMBL document CHEMBL5053530, “Neopetrosidines A-D, pyridine alkaloids isolated from the marine sponge Neopetrosia chaliniformis and their cell cycle elongation activity” (Bioorg Med Chem, 2021).
Calls of active or inactive are those of the source. No cut-off for these calls is given here.

Key:
HeLa/Fucci2 [1] = test: Cytotoxicity against human HeLa/Fucci2 cells assessed as reduction in cell growth measured after 3 days by MTT assay; format: functional, cell-based; conditions: HeLa/Fucci2, 72 h
[2] = Induction of cell cycle duration in human HeLa/Fucci2 cells assessed as increase in G1 phase duration at 5 uM measured every 20 mins for 96 hrs by time-lapse imaging analysis (reference value: 5 +/- 0.8 hrs); format: functional
[3] = Induction of cell cycle duration in human HeLa/Fucci2 cells assessed as increase in G1/S phase duration at 5 uM measured every 20 mins for 96 hrs by time-lapse imaging analysis (reference value: 4.8 +/- 0.3 hrs); format: functional
[4] = Induction of cell cycle duration in human HeLa/Fucci2 cells assessed as increase in S/G2/M phase duration at 5 uM measured every 20 mins for 96 hrs by time-lapse imaging analysis (reference value: 7.1 +/- 0.7 hrs); format: functional
HeLa/Fucci2 [5] = test: Antiproliferative activity against human HeLa/Fucci2 cells assessed as reduction in cell viability incubated for 48 hrs under glucose-limiting condition by LDH assay; format: functional, cell-based
HeLa/Fucci2 [6] = test: Antiproliferative activity against human HeLa/Fucci2 cells reduction in cellular ATP production incubated for 4 hrs by CellTiter-Glo cell viability assay; format: functional, cell-based; conditions: dose 1.3-5 µM
[7] = Effect on glycolysis in human HeLa/Fucci2 cells assessed as increase in lactate production per ug protein at 5 uM incubated for 24 hrs by LDH Assay (reference value: 19.6 +/- 6.2 nmol); format: functional
HeLa = test: Induction of mitochondria membrane potential loss in human HeLa cells at 5 uM measured after 1 hr by JC1 dye based fluorescence microscopic analysis; format: functional, cell-based
HeLa/Fucci2 [8] = test: Induction of cell cycle duration in human HeLa/Fucci2 cells assessed as increase in G1 phase duration measured every 20 mins for 96 hrs by time-lapse imaging analysis; format: functional, cell-based; conditions: dose 1.25-10 µM
HeLa/Fucci2 [9] = test: Induction of cell cycle duration in human HeLa/Fucci2 cells assessed as increase in G1/S phase duration measured every 20 mins for 96 hrs by time-lapse imaging analysis; format: functional, cell-based; conditions: dose 1.25-10 µM
HeLa/Fucci2 [10] = test: Induction of cell cycle duration in human HeLa/Fucci2 cells assessed as increase in S/G2/M phase duration measured every 20 mins for 96 hrs by time-lapse imaging analysis; format: functional, cell-based; conditions: dose […]
[11] = Effect on glycolysis in human HeLa/Fucci2 cells assessed as increase in lactate production per ug protein at 0.1 uM incubated for 24 hrs by LDH Assay (reference value: 19.6 +/- 6.2 nmol); format: functional

## C1=C\CCCCCCc2ccc[n+](c2)CCCCCC/C=C\CCCCCCc2ccc[n+](c2)CCCCCCCC/1
HeLa/Fucci2 [1]
  IC50: 2.6 µM

## C1=C\CCCCCC[n+]2cccc(c2)CCCCCCCCCCCCCC[n+]2cccc(c2)CCCCCC/1.O=C[O-].O=C[O-]
HeLa/Fucci2 [1]
  IC50: 1.2 µM
[2]
  Time: 12 h
[3]
  Time: 9.3 h
[4]
  Time: 14.7 h
HeLa/Fucci2 [5]
  Activity: Active
HeLa/Fucci2 [6]
  Activity: Dose-dependent effect
[7]
  Activity: 27.9 nmol
HeLa
  Activity: Active
HeLa/Fucci2 [8]
  Activity: Dose-dependent effect
HeLa/Fucci2 [9]
  Activity: Dose-dependent effect
HeLa/Fucci2 [10]
  Activity: Dose-dependent effect

## C1=C\CCCCCC[n+]2cccc(c2)CCCCCC/C=C\CCCCCC[n+]2cccc(c2)CCCCCC/1
HeLa/Fucci2 [1]
  IC50: 2.4 µM

## C1=C\CCCCCC[n+]2cccc(c2)CCCCCC/C=C\CCCCCC[n+]2cccc(c2)CCCCCCCC/1
HeLa/Fucci2 [1]
  IC50: 2.6 µM

## C=C(C)[C@H]1Cc2c(ccc3c2O[C@@H]2COc4cc(OC)c(OC)cc4[C@@H]2C3=O)O1 [ROTENONE]
[11]
  Activity: 34.5 nmol
